Laboratory results as given in patent US9701663B2, “Sulfonamide retinoic acid receptor-related orphan receptor modulators and uses thereof” (INNOV17 LLC, priority 2014, dated 2017).

How the values were obtained:
Format in all cases: cell-based
Conditions in all cases: 72 h; human CD4+ T cells under TH17-polarizing conditions, 3 days; supernatant ELISA
IL-17F = experiment: Human TH17 cytokine inhibition measured by ELISA: IL-17F
Experimental: (§1) Human TH17 Cytokine Inhibition as Measured by ELISA
(§2) Peripheral blood mononuclear cells (PBMCs) were sourced from freshly prepared leukocyte enriched plasma (buffy coat) from healthy donors (New York Blood Center). PBMCs were isolated by density gradient centrifugation using Ficoll-Paque™ PLUS (GE Healthcare). Human CD4+ T cells were seeded into 96-well plates (5×10^4 cells/well) and activated with plate-bound anti-human (h)-CD3 antibody and soluble h-aCD28 (both at 1 ug/ml; eBioscience) and differentiated into TH17 cells with 20 ng/mL h-IL-6, 5 ng/mL h-TGF-β1, 10 ng/mL h-IL-23 (eBioscience) and 10 ng/mL IL-1 β (Miltenyi Biotec) in serum-free TexMACS Medium (Miltenyi Biotec) supplemented with 1% Penicillin/Streptomycin (Lonza) for 3 days. CD4+ T cells propagated under TH17-polarizing conditions were cultured in the presence or absence of various concentrations of compounds with a final concentration of 0.1% DMSO. Supernatants were collected and stored at −20° C. until assayed for IL-17A, IL-17F and IL-21 levels by “Ready-Set-Go” ELISA kits (eBioscience) as per manufacturer's instructions. Endpoint absorbance was read at 450 nm using a microplate reader (Perkin Elmer).

IL-17A = experiment: Human TH17 cytokine inhibition measured by ELISA: IL-17A
Experimental: as §1, §2

IL-21 = experiment: Human TH17 cytokine inhibition measured by ELISA: IL-21
Experimental: as §1, §2

IL-22 = experiment: Human TH17 cytokine inhibition measured by ELISA: IL-22

| SMILES | IC50 (IL-17F) | IC50 (IL-17A) | IC50 (IL-21) | IC50 (IL-22) |
| --- | --- | --- | --- | --- |
| C[C@@H]1C[C@H](Cn2ccc3cc(-c4cn[nH]c4)ccc32)CN1S(=O)(=O)c1ccccc1 (racemic) [Example 47, rac.-cis-1-((-5-methyl-1-(phenylsulfonyl)pyrrolidin-3-yl)methyl)-5-(1H-pyrazol-4-yl)-1H-indole] | < 10 µM | < 10 µM | < 10 µM |  |
| C[C@H]1C[C@H](Cn2ccc3cc(-c4cn[nH]c4)ccc32)CN1S(=O)(=O)c1ccccc1 (racemic) [Example 48, rac.-trans-1-((-5-methyl-1-(phenylsulfonyl)pyrrolidin-3-yl)methyl)-5-(1H-pyrazol-4-yl)-1H-indole] | < 10 µM | < 10 µM | < 10 µM |  |
| O=S(=O)(c1ccccc1)N1CCC(Cn2ccc3cc(-c4cn[nH]c4)ccc32)CC1 [Example 5, 1-((1-(phenylsulfonyl)piperidin-4-yl)methyl)-5-(1H-pyrazol-4-yl)-1H-indole] | < 10 µM | < 10 µM | < 10 µM |  |
| O=S(=O)(Cc1ccccc1)N1CCC(Cn2ccc3cc(-c4cn[nH]c4)ccc32)CC1 [Example 6, 1-((1-(benzylsulfonyl)piperidin-4-yl)methyl)-5-(1H-pyrazol-4-yl)-1H-indole] | < 10 µM | < 10 µM | > 10 µM |  |
| O=S(=O)(CCc1ccccc1)N1CCC(Cn2ccc3cc(-c4cn[nH]c4)ccc32)CC1 [Example 7, 1-((1-(phenethylsulfonyl)piperidin-4-yl)methyl)-5-(1H-pyrazol-4-yl)-1H-indole] | < 10 µM | < 10 µM | < 10 µM |  |
| O=S(=O)(CC(F)(F)F)N1CCC(Cn2ccc3cc(-c4cn[nH]c4)ccc32)CC1 [Example 8, 5-(1H-pyrazol-4-yl)-1-((1-((2,2,2-trifluoroethyl)sulfonyl)piper-idin-4-yl)methyl)-1H-indole] | > 10 µM | > 10 µM | > 10 µM |  |
| CC1(C)CC(Cn2ccc3cc(-c4cn[nH]c4)ccc32)CN1S(=O)(=O)c1ccccc1 (stereo not shown) [Example 29, 1-((5,5-dimethyl-1-(phenylsulfonyl)pyrrolidin-3-yl)methyl)-5-(1H-pyrazol-4-yl)-1H-indole] | < 10 µM | < 10 µM | < 10 µM |  |
| O=S(=O)(c1ccc(Cl)cc1)N1CCC(Cn2ccc3cc(-c4cn[nH]c4)ccc32)CC1 [Example 36, 1-((1-(4-chlorophenylsulfonyl)piperidin-4-yl)methyl)-5-(1H-pyrazol-4-yl)-1H-indole] | < 10 µM | < 10 µM | < 10 µM | < 10 µM |
| O=S(=O)(c1cccnc1)N1CCC(Cn2ccc3cc(-c4cn[nH]c4)ccc32)CC1 [Example 38, 5-(1H-pyrazol-4-yl)-1-((1-(pyridin-3-ylsulfonyl)piperidin-4-yl)methyl)-1H-indole] | < 10 µM | < 10 µM | < 10 µM | < 10 µM |
| O=S(=O)(c1ccccc1F)N1CCC(Cn2ccc3cc(-c4cn[nH]c4)ccc32)CC1 [Example 40, 1-((1-(2-fluorophenylsulfonyl)piperidin-4-yl)methyl)-5-(1H-pyrazol-4-yl)-1H-indole] | < 10 µM | < 10 µM | < 10 µM | < 10 µM |
| CS(=O)(=O)N1CCC(Cn2ccc3cc(-c4cn[nH]c4)ccc32)CC1 [Example 50, 1-((1-(methylsulfonyl)piperidin-4-yl)methyl)-5-(1H-pyrazol-4-yl)-1H-indole] | > 10 µM | > 10 µM | > 10 µM | > 10 µM |
